Measured values from patent publication US12060347B2 (BRISTOL-MYERS SQUIBB COMPANY, priority 2016, dated 2024).

target: T1, human PAR4 (Homo sapiens, UniProt Q96RI0); test: PAR4 FLIPR assay: antagonism of agonist-peptide-induced calcium mobilization in PAR4-expressing HEK293 cells; type: cell-based; conditions: H-Ala-Phe(4-F)-[…]NH2-induced intracellular calcium mobilization, 11-point curves
T1 construct: expressed in transfected cells; host or cells: HEK293 PAR4 Clone 1.2A (BMS Arctic ID 383940)
T1 sequence (Q96RI0 18-385): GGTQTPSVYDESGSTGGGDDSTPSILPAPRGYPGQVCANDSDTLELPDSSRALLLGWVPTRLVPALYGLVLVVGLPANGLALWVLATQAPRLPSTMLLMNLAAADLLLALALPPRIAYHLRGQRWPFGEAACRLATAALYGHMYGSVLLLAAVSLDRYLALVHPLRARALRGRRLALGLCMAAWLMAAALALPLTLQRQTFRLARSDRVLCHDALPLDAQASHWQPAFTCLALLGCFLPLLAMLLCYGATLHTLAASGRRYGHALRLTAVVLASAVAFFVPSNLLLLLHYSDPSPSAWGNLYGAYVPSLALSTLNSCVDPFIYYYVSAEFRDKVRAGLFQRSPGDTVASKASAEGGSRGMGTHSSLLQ

First: COc1cnc2c(-c3nc4cc(F)c(OC[C@@H](C)OC(=O)Nc5ccc6[nH]c(=O)oc6c5)nc4s3)cc(C)cc2n1 [Example 683, (R)-1-((6-fluoro-2-(2-methoxy-7-methylquinoxalin-5-yl)thiazolo[5,4-b]pyridin-5-yl)oxy) propan-2-yl (2-oxo-2,3-dihydrobenzo[d]oxazol-6-yl)carbamate]
Second: COc1cnc2c(-c3nc4cc(F)c(O[C@@H](C)[C@@H](C)OC(=O)Nc5ccc6[nH]c(=O)oc6c5)nc4s3)cc(C)cc2n1 [Example 708, (2R,3S)-3-((6-fluoro-2-(2-methoxy-7-methylquinoxalin-5-yl)thiazolo[5,4-b]pyridin-5-yl)oxy)butan-2-yl (2-oxo-2,3-dihydrobenzo[d]oxazol-6-yl)carbamate]
The IC50 of the first is 3.7-fold lower: 0.7 nM for the first, 2.6 nM for the second.

Compared with `COc1cnc2c(-c3nc4cc(F)c(OC[C@@H](C)OC(=O)Nc5cccnc5)nc4s3)cc(C)cc2n1` [Example 684, (R)-1-((6-fluoro-2-(2-methoxy-7-methylquinoxalin-5-yl)thiazolo[5,4-b]pyridin-5-yl)oxy) propan-2-yl pyridin-3-ylcarbamate], `COc1cnc2c(-c3nc4cc(F)c(OC[C@@H](C)OC(=O)Nc5ccnnc5)nc4s3)cc(C)cc2n1` [Example 698, (R)-1-((6-fluoro-2-(2-methoxy-7-methylquinoxalin-5-yl)thiazolo[5,4-b]pyridin-5-yl)oxy) propan-2-yl pyridazin-4-ylcarbamate] is 24-fold higher in IC50: 0.7 nM for the first, 17 nM for the second.

First: COc1cnc2c(-c3nc4cc(F)c(OC[C@@H](C)OC(=O)Nc5cnc(OCCO)nc5)nc4s3)cc(C)cc2n1 [Example 685, (R)-1-((6-fluoro-2-(2-methoxy-7-methylquinoxalin-5-yl)thiazolo[5,4-b]pyridin-5-yl)oxy) propan-2-yl (2-(2-hydroxyethoxy)pyrimidin-5-yl)carbamate]
Second: COc1cnc2c(-c3nc4cc(F)c(OC[C@@H](C)OC(=O)Nc5cnc(OCCC(C)(C)O)nc5)nc4s3)cc(C)cc2n1 [Example 702, (R)-1-((6-fluoro-2-(2-methoxy-7-methylquinoxalin-5-yl)thiazolo[5,4-b]pyridin-5-yl)oxy) propan-2-yl (2-(3-hydroxy-3-methylbutoxy)pyrimidin-5-yl)carbamate]
The IC50 of the first is 2.5-fold lower: 1.7 nM for the first, 4.3 nM for the second. The first is the more potent here.

`COc1cnc2c(-c3nc4cc(F)c(OC[C@@H](C)OC(=O)Nc5ccc(OCC(F)(F)CO)nc5)nc4s3)cc(C)cc2n1` [Example 687, (R)-1-((6-fluoro-2-(2-methoxy-7-methylquinoxalin-5-yl)thiazolo[5,4-b]pyridin-5-yl)oxy) propan-2-yl (6-(2,2-difluoro-3-hydroxypropoxy)pyridin-3-yl)carbamate] and `COc1cnc2c(-c3nc4cc(F)c(OC[C@@H](C)OC(=O)Nc5ccc(OCCO)nc5)nc4s3)cc(C)cc2n1` [Example 700, (R)-1-((6-fluoro-2-(2-methoxy-7-methylquinoxalin-5-yl)thiazolo[5,4-b]pyridin-5-yl)oxy) propan-2-yl (6-(2-hydroxyethoxy)pyridin-3-yl)carbamate] are the same in IC50: 0.9 nM for the first, 0.9 nM for the second.

Going from `COc1cnc2c(-c3nc4cc(F)c(OC[C@@H](C)OC(=O)Nc5cnc(OC[C@@H](C)O)nc5)nc4s3)cc(C)cc2n1` [Example 688, (R)-1-((6-fluoro-2-(2-methoxy-7-methylquinoxalin-5-yl)thiazolo[5,4-b]pyridin-5-yl)oxy) propan-2-yl (2-((R)-2-hydroxypropoxy)pyrimidin-5-yl)carbamate] to `COc1cnc2c(-c3nc4cc(F)c(OC[C@@H](C)OC(=O)Nc5cnc(OC[C@H](C)O)nc5)nc4s3)cc(C)cc2n1` [Example 701, (R)-1-((6-fluoro-2-(2-methoxy-7-methylquinoxalin-5-yl)thiazolo[5,4-b]pyridin-5-yl)oxy) propan-2-yl (2-((S)-2-hydroxypropoxy)pyrimidin-5-yl)carbamate], the IC50 falls from 4.5 nM to 2.7 nM (1.7-fold). The second is the more potent here.

First: COC(=O)c1ncc(NC(=O)O[C@H](C)COc2nc3sc(-c4cc(C)cc5nc(OC)cnc45)nc3cc2F)cn1 [Example 689, methyl (R)-5-((((1-((6-fluoro-2-(2-methoxy-7-methylquinoxalin-5-yl)thiazolo[5,4-b]pyridin-5-yl)oxy)propan-2-yl)oxy)carbonyl)amino)pyrimidine-2-carboxylate]
Second: COC(=O)c1ncc(NC(=O)O[C@H](C)[C@H](C)Oc2nc3sc(-c4cc(C)cc5nc(OC)cnc45)nc3cc2F)cn1 [Example 712, methyl 5-(((((2R,3S)-3-((6-fluoro-2-(2-methoxy-7-methylquinoxalin-5-yl)thiazolo[5,4-b]pyridin-5-yl)oxy)butan-2-yl)oxy)carbonyl)amino)pyrimidine-2-carboxylate]
The IC50 of the first is 11-fold lower: 0.3 nM for the first, 3.2 nM for the second. The first is the more potent here.

Compared with `COC(=O)c1ccc(NC(=O)O[C@H](C)COc2nc3sc(-c4cc(C)cc5nc(OC)cnc45)nc3cc2F)cn1` [Example 690, methyl (R)-5-((((1-((6-fluoro-2-(2-methoxy-7-methylquinoxalin-5-yl)thiazolo[5,4-b]pyridin-5-yl)oxy)propan-2-yl)oxy)carbonyl)amino)picolinate], `COc1cnc2c(-c3nc4cc(F)c(OC[C@@H](C)OC(=O)Nc5ccc(CO)nc5)nc4s3)cc(C)cc2n1` [Example 694, (R)-1-((6-fluoro-2-(2-methoxy-7-methylquinoxalin-5-yl)thiazolo[5,4-b]pyridin-5-yl)oxy) propan-2-yl (6-(hydroxymethyl)pyridin-3-yl)carbamate] is 7-fold higher in IC50: 0.3 nM for the first, 2.1 nM for the second. The first is the more potent here.

First: COc1cnc2c(-c3nc4cc(F)c(OC[C@@H](C)OC(=O)Nc5ccc(CCO)nc5)nc4s3)cc(C)cc2n1 [Example 691, (R)-1-((6-fluoro-2-(2-methoxy-7-methylquinoxalin-5-yl)thiazolo[5,4-b]pyridin-5-yl)oxy) propan-2-yl (6-(2-hydroxyethyl)pyridin-3-yl)carbamate]
Second: COc1cnc2c(-c3nc4cc(F)c(OC[C@@H](C)OC(=O)Nc5ccnc(CCO)c5)nc4s3)cc(C)cc2n1 [Example 696, (R)-1-((6-fluoro-2-(2-methoxy-7-methylquinoxalin-5-yl)thiazolo[5,4-b]pyridin-5-yl)oxy) propan-2-yl (2-(2-hydroxyethyl)pyridin-4-yl)carbamate]
The IC50 of the first is 2.9-fold lower: 0.9 nM for the first, 2.6 nM for the second.

`COc1cnc2c(-c3nc4cc(F)c(OC[C@@H](C)OC(=O)Nc5cnc(O[C@H](C)CO)nc5)nc4s3)cc(C)cc2n1` [Example 692, (R)-1-((6-fluoro-2-(2-methoxy-7-methylquinoxalin-5-yl)thiazolo[5,4-b]pyridin-5-yl)oxy) propan-2-yl (2-(((R)-1-hydroxypropan-2-yl)oxy)pyrimidin-5-yl)carbamate] and `COc1cnc2c(-c3nc4cc(F)c(OC[C@@H](C)OC(=O)Nc5cnc(O[C@@H](C)CO)nc5)nc4s3)cc(C)cc2n1` [Example 693, (R)-1-((6-fluoro-2-(2-methoxy-7-methylquinoxalin-5-yl)thiazolo[5,4-b]pyridin-5-yl)oxy) propan-2-yl (2-(((S)-1-hydroxypropan-2-yl)oxy)pyrimidin-5-yl)carbamate] are within 1.5-fold of each other in IC50: 1.8 nM for the first, 1.3 nM for the second.

First: COc1cnc2c(-c3nc4cc(F)c(OC[C@@H](C)OC(=O)Nc5ccnc(OCCO)c5)nc4s3)cc(C)cc2n1 [Example 697, (R)-1-((6-fluoro-2-(2-methoxy-7-methylquinoxalin-5-yl)thiazolo[5,4-b]pyridin-5-yl)oxy) propan-2-yl (2-(2-hydroxyethoxy)pyridin-4-yl)carbamate]
Second: COc1cnc2c(-c3nc4cc(F)c(OC[C@@H](C)OC(=O)Nc5ccnc(OCCC(C)(C)O)c5)nc4s3)cc(C)cc2n1 [Example 699, (R)-1-((6-fluoro-2-(2-methoxy-7-methylquinoxalin-5-yl)thiazolo[5,4-b]pyridin-5-yl)oxy) propan-2-yl (2-(3-hydroxy-3-methylbutoxy)pyridin-4-yl)carbamate]
The IC50 of the first is 2.6-fold higher: 2.9 nM for the first, 1.1 nM for the second.

Going from `COc1cnc2c(-c3nc4cc(F)c(O[C@@H](C)[C@@H](C)OC(=O)Nc5cccnc5)nc4s3)cc(C)cc2n1` [Example 709, (2R,3S)-3-((6-fluoro-2-(2-methoxy-7-methylquinoxalin-5-yl)thiazolo[5,4-b]pyridin-5-yl)oxy)butan-2-yl pyridin-3-ylcarbamate] to `COc1cnc2c(-c3nc4cc(F)c(O[C@@H](C)[C@@H](C)OC(=O)Nc5ccncc5)nc4s3)cc(C)cc2n1` [Example 713, (2R,3S)-3-((6-fluoro-2-(2-methoxy-7-methylquinoxalin-5-yl)thiazolo[5,4-b]pyridin-5-yl)oxy)butan-2-yl pyridin-4-ylcarbamate], the IC50 rises from 0.4 nM to 1.8 nM (4.5-fold).

`COc1cnc2c(-c3nc4cc(F)c(O[C@@H](C)[C@@H](C)OC(=O)Nc5ccc(C)nc5)nc4s3)cc(C)cc2n1` [Example 710, (2R,3S)-3-((6-fluoro-2-(2-methoxy-7-methylquinoxalin-5-yl)thiazolo[5,4-b]pyridin-5-yl)oxy)butan-2-yl (6-methylpyridin-3-yl)carbamate] and `COc1cnc2c(-c3nc4cc(F)c(O[C@@H](C)[C@@H](C)OC(=O)Nc5cnc(OC)nc5)nc4s3)cc(C)cc2n1` [Example 711, (2R,3S)-3-((6-fluoro-2-(2-methoxy-7-methylquinoxalin-5-yl)thiazolo[5,4-b]pyridin-5-yl)oxy)butan-2-yl (2-methoxypyrimidin-5-yl)carbamate] are within 1.5-fold of each other in IC50: 1.8 nM for the first, 2.4 nM for the second.

`COc1cnc2c(-c3nc4cc(F)c(O[C@@H](C)[C@@H](C)OC(=O)Nc5cncc(F)c5)nc4s3)cc(C)cc2n1` [Example 714, (2R,3S)-3-((6-fluoro-2-(2-methoxy-7-methylquinoxalin-5-yl)thiazolo[5,4-b]pyridin-5-yl)oxy)butan-2-yl (5-fluoropyridin-3-yl)carbamate] was tested, and the IC50 was 1.2 nM.
